From US20160000804A1, “INHIBITORS OF NA(V) 1.9 CHANNEL ACTIVITY AND USES THEREOF FOR TREATING PAIN” (UNIVERSITE D'AIX-MARSEILLE, priority 2013, published 2016)
Entries after “also recorded” stand apart in the source; their conditions may differ.

Legend:
[1] = system: arthritic mice; assay: CFA chronic arthritis pain, transdermal gel, mechanical pain; assay type: in vivo; conditions: gel application; cholesterol 28 mM or ibuprofen 5%
Method: Chronic inflammation (monoarthritis model) was induced under 2% isoflurane anesthesia by two subcutaneous injections of 15 μl around the tibio-tarsal joint of mice with complete Freund adjuvant (CFA), containing 5 μg/μl heat-killed Mycobacterium butyricum (Becton, Dickinson and cie). Mechanical pain threshold was assessed using von Frey filaments (BioSeb) calibrated from 0.008 to 4.000 g. The filaments were applied five times each, in order of increasing forces, and pressed perpendicularly to the plantar surface of the hindpaw until they bent. The first filament which evoked at least 3/5 response was assigned as the pain threshold in grams.

[2] = system: arthritic mice; assay: CFA induced chronic inflammation (monoarthritis), dynamic weight bearing; assay type: in vivo
Method: Chronic inflammation (monoarthritis model) was induced under 2% isoflurane anesthesia by two subcutaneous injections of 15 μl around the tibio-tarsal joint of mice with complete Freund adjuvant (CFA), containing 5 μg/μl heat-killed Mycobacterium butyricum (Becton, Dickinson and cie). The animals' weight distribution on the four limbs was assessed using the dynamic weight bearing test (BioSeb). This new incapacitance test consists in a continuous measurement of all pressure points applied by a freely moving animal, allowing a quantitative evaluation of the weight imbalance caused by paw mechanical allodynia. Mice were placed in an 11×11×22 cm cage with a 44×44 sensor cells grid on the floor. The pressure applied on sensor cells by the animal's paws is recorded at a 10 Hz frequency over a 5 min period. Pressure and surface detection thresholds were determined automatically for each animal by the Dynamic weight bearing 1.3.2h software (Bioseb). After the manual attribution of each pressure point to the corresponding paw, the mean weight applied on each paw is calculated. Unilateral pain is finally evaluated trough the ipsi/contralateral hindpaws weight ratio, the weight applied on forepaws, and the percentage of time spent raising ipsilateral hindpaw.

[3] = system: wild type and Nav1.9 KO mice; assay: Von Frey test in non-inflamed animals; assay type: in vivo; conditions: intraplantar injection, non-inflamed wild type and Nav1.9 KO mice
Method: (§1) Methyl βcyclodextrin or α-cyclodextrin (both from sigma) were diluted in saline buffer prior to injection. Methyl βcyclodextrin/cholesterol complex (40 mg of cholesterol/g of complex) also called soluble cholesterol was purchased (from Sigma). Unless otherwise states, all cyclodextrin or cyclodextrin/cholesterol complexes were injected at a 40 mM concentration of cyclodextrin corresponding to 5.6 mM of cholesterol in the complex. Mechanical pain threshold was assessed using von Frey filaments (BioSeb) calibrated from 0.008 to 4.000 g. The filaments were applied five times each, in order of increasing forces, and pressed perpendicularly to the plantar surface of the hindpaw until they bent. The first filament which evoked at least 3/5 response was assigned as the pain threshold in grams.

[4] = system: mice; assay: Carrageenan model of persistent paw inflammation, von Frey test; assay type: in vivo
Method: Persistent paw inflammation was induced by intraplantar injection of 20 μl of 2% λ-carrageenan (Sigma) in mice. Control animal received only vehicle saline solution (0.9% NaCl). 1 hr prior to carrageenan injection, animals received intra peritoneal injection of either saline or ibuprofen (75 mg/kg in saline solution). Mechanical pain threshold was assessed using von Frey filaments (BioSeb) calibrated from 0.008 to 4.000 g. The filaments were applied five times each, in order of increasing forces, and pressed perpendicularly to the plantar surface of the hindpaw until they bent. The first filament which evoked at least 3/5 response was assigned as the pain threshold in grams.

[5] = system: Nav1.9; assay: Whole-cell voltage clamp recording of Nav1.9 activation curve in DRG neurons; assay type: cell-based; conditions: for reversal of the inflammatory cocktail-induced shift of Nav1.9 activation curve: cholesterol supply in presence of inflammatory cocktail; for shift of Nav1.9 activation curve: substance alone versus control neuron, MβCD 20 mM, water soluble cholesterol 20 mM, cholesterol oxidase 4 U/ml, 15 min 37° C.
Method: Dissociation of DRG neurons has been previously described (Coste et al., 2004; Coste et al., 2007). In brief, thoraco-lumbar DRG neurons were excised and incubated in enzyme solution containing 2 mg/ml of collagenase IA (Sigma) for 45 min at 37° C. before trituration in Hanks' medium (Life Technologies). Culture medium was Dulbecco's modified Eagle's medium (DMEM, Life Technologies) supplemented with 10% heat-inactivated fetal calf serum, 50 U/ml penicillin-streptomycin, 2 mML-glutamine, 25 mM glucose, 2 ng/ml glial-derived neurotrophic factor (GDNF) (all from Life Technologies), and 25 ng/ml nerve growth factor (NGF, Millipore). Cells were seeded on 35 mm cultures dishes (Nunc) coated with 2 mg/ml laminin (Sigma) and maintained in a humidified atmosphere (5% CO2, 37° C.) for 16-24 h before further cholesterol manipulations or electrophysiological recording.
Patch pipettes had resistances of 3-3.5 MΩ for whole-cell voltage clamp recordings. Intracellular solution used in this study contained: 130 CsCl, 10 HEPES, 8 NaCl, 5 EGTA, 2.4 CaCl2, 1 MgCl2 (pH 7.3, 298 mOsm/l). […] Extracellular solution contained 500 nM tetrodotoxin (TTX) as well as 1 mM amiloride and 50 μM La^3+ in order to block Ca^2+ currents without altering NaN/Nav1.9 properties (Coste et al., 2007). […]. Extracellular media were exchanged using a gravity-fed bath perfusion system at a flow rate of 2-5 ml/min, while bath solution was removed by continuous suction. Recycling was used to reduce the amount of TTX used. Stock solutions of TTX (0.1 mM) and La^3+ (1M) were prepared in water. Stock solution of amiloride hydrochloride (1M) was made in dimethylsulfoxyde (final concentration, 0.1%).
For drugs application, DRG cultures were incubated for 15 min at 37° C. in DMEM containing freshly prepared MβCD (20 mM), water soluble cholesterol (20 mM), or cholesterol oxidase (4 U/ml). The inflammatory cocktail was incubated in extracellular solution for at least 20 min at room temperature (RT).
Data were acquired with an Axopatch 200B amplifier (Axon Instruments), filtered at 2 kHz, and digitally sampled at 20 kHz using PCLAMP 10 software. Currents were leak subtracted using a P/6 protocol. Voltage errors were minimized using 70-85% series resistance compensation. Whole-cell recording were begun 1 min after achieving the whole-cell configuration, to allow Cs^+ to equilibrate and to allow Nav1.9 channels to recover from slow inactivation. Conductance-voltage curves were calculated from the peak current according to the equation G=I/(V−Erev), where V is the test pulse potential and Erev the reversal potential calculated according to the Nernst equation. The activation curve (G-V) was fitted using the Boltzmann function: G/Gmax=1/(1+exp[(V1/2−V)/k]), where G/Gmax is the normalized conductance, V1/2 is the potential of half-maximum channel activation, and k is the steepness factor.

[6] = system: wild type and Nav1.9 KO mice; assay: Von Frey test after intraplantar injection of cyclodextrins (cholesterol depletion); assay type: in vivo; conditions: for mechanical allodynia / tactile hyperalgesia (von Frey filament test): intraplantar injection of 20 μl of a 40 mM solution
Method: as §1

[7] = periarticular injection, 20 μl of a 5.6 mM solution, versus saline

For CC(C)CCC[C@@H](C)[C@H]1CC[C@H]2[C@@H]3CC=C4C[C@@H](O)CC[C@]4(C)[C@H]3CC[C@]12C [cholesterol], the “chronic arthritis mechanical pain, transdermal delivery” value [1] was “much efficient to treat arthritic inflammatory pain than a 5% ibuprofen gel”, the “weight put on tail” value ([2]; periarticular cholesterol injection versus saline injected mice) was “reduces the weight put on tail” and the “posture / behavioural parameters (dynamic weight bearing)” value [2, 7] was “improved all posture parameters examined; also recorded: improve behavioural parameter of arthritic mice”. The “weight borne by inflamed limbs” value [2, 7] was “bear more weight than limbs injected with saline solution”, the “mechanical threshold in physiological non-inflamed conditions” value [3] was “without changing physiological mechanical threshold” and the “mechanical threshold in physiological non-inflamed conditions” value ([3]; listed as Cholesterol) was “does not modify mechanical sensibility”. The “carrageenan induced mechanical allodynia, transdermal delivery” value ([4]; gel with 5.6 mM cholesterol applied for 1.5 hrs, versus control gel) was “kills carragenin induced pain”, the “lambda-carrageenan-induced tactile hyperalgesia (von Frey)” value ([4]; intraplantar injection of soluble cholesterol, 5, 6 mM of cholesterol) was “inhibits inflammatory evoked pain” and the “reversal of the inflammatory cocktail-induced shift of Nav1.9 activation curve” value [5] was “reverses this shift of activation”. For the same compound, the “reversal of the inflammatory cocktail-induced shift of Nav1.9 activation curve” value ([5]; listed as Cholesterol) was “reverses the shift” and the “shift of Nav1.9 activation curve” value [5] was “does not modify activation properties of Nav1.9”.
For CC(C)Cc1ccc(C(C)C(=O)O)cc1 (stereo not drawn) [ibuprofen], the “lambda-carrageenan-induced tactile hyperalgesia (von Frey)” value ([4]; intraperitoneal injection (75 mg/kg, 1 hr prior to carrageenan)) was “reverse lambdα-carrageenan-induced tactile hyperalgesia” and the “effect on methyl-beta-cyclodextrin-induced allodynia (mechanical threshold)” value ([6]; intraperitoneal 75 mg/kg, wild type and Nav1.9 KO mice) was “does not modify methyl-beta-cyclodextrin-induced tactile hyperalgia; also recorded: does not reverse allodynic phenotype; also recorded: did not change mechanical threshold”.
In the case of OC[C@H]1O[C@@H]2O[C@H]3[C@H](O)[C@@H](O)[C@@H](O[C@H]4[C@H](O)[C@@H](O)[C@@H](O[C@H]5[C@H](O)[C@@H](O)[C@@H](O[C@H]6[C@H](O)[C@@H](O)[C@@H](O[C@H]7[C@H](O)[C@@H](O)[C@@H](O[C@H]1[C@H](O)[C@H]2O)O[C@@H]7CO)O[C@@H]6CO)O[C@@H]5CO)O[C@@H]4CO)O[C@@H]3CO [α-CD, α-cyclodextrin], the “mechanical allodynia / tactile hyperalgesia (von Frey filament test)” value ([6]; Nav1.9 KO mice) was “did not induce mechanical allodynia”, the “mechanical allodynia / tactile hyperalgesia (von Frey filament test)” value ([6]; wild type mice) was “did not induce mechanical allodynia” and the “mechanical allodynia / tactile hyperalgesia (von Frey filament test)” value ([6]; wild type mice, listed as Alphα-cyclodextrin) was “does not induce tactile hyperalgia”.
cholesterol oxidase was tested, and the “shift of Nav1.9 activation curve” value [5] was “induces the same shift as inflammatory cocktail; also recorded: shift Nav1.9 activation curves to hyperpolarised potential”.
In the case of methyl-beta-cyclodextrin [MBCD], the “mechanical allodynia / tactile hyperalgesia (von Frey filament test)” value ([6]; Nav1.9 KO mice) was “markedly reduced”, the “mechanical allodynia / tactile hyperalgesia (von Frey filament test)” value ([6]; wild type mice) was “induces a strong mechanical allodynia” and the “shift of Nav1.9 activation curve” value [5] was “shift Nav1.9 activation curves to hyperpolarised potential”. The “shift of Nav1.9 activation curve” value ([5]; listed as MβCD) was “induces the same shift as inflammatory cocktail”.
